Measured values published in patent US7309710B2, “Crystals” (Astellas Pharma Inc., priority 2002, dated 2007).

What was measured:
[1] = test system: TNCB-induced Contact Hypersensitivity; experiment: Suppression of TNCB-induced Contact Hypersensitivity; assay type: in vivo; settings: test described in patent reference 1
Text: (§1) 4,6-Diemthyl-4′-[3,5-bis(trifluoromethyl)-1H-pyrazol-1-yl]nicotinanilide is excellent in terms of the CRACC inhibitory activity, the inhibition selectivity over VOCC, and the activity of suppressing IL-2 production. […] Therefore, a pharmaceutical product containing the compound is useful as an agent for preventing or treating allergic, inflammatory or autoimmune diseases in which CRACC and IL-2 participates. Herein, the allergic, inflammatory or autoimmune diseases include, for example, bronchial asthma, psoriasis, atopic diseases including atopic dermatitis, inflammatory bowel diseases including Crohn disease, digestive ulcer, nephritis, hepatitis, pancreatitis, collagenosis, rheumatoid arthritis, osteoarthritis, and rejection on transplantation. The usefulness on these diseases can be confirmed at the in vitro tests of the CRACC inhibitory activity and the activity of suppressing IL-2 production as described in the patent reference 1 and at various tests using, for example, antigen-induced airway eosinophilia model as a typical disease model of bronchial asthma, and murine collagen-induced arthritis model. 4,6-Dimethyl-4′-[3,5-bis (trifluoromethyl)-1H-pyrazol-1-yl]nicotinanilide may be produced by the method described in the patent reference 1.

IL-2 production = experiment: Activity of suppressing IL-2 production; assay type: cell-based
Text: as §1

[2] = test system: Ca2+ release-activated Ca2+ channel (CRACC); experiment: CRACC inhibitory activity (in vitro test as described in patent reference 1); assay type: cell-based
Text: as §1

[3] = test system: voltage-operated Ca2+ channel (VOCC); experiment: Inhibition selectivity for CRACC over VOCC; assay type: cell-based
Text: A pyrazole derivative having a high inhibition selectivity for CRACC over voltage-operated Ca^2+ channel (abbreviated as VOCC hereinafter) involved in intracellular calcium regulation of excitatory cells such as smooth muscle cells and nerve cells and having an inhibitory activity against IL-2 production has been reported (for example, patent reference 1).
4,6-Diemthyl-4′-[3,5-bis(trifluoromethyl)-1H-pyrazol-1-yl]nicotinanilide is excellent in terms of the CRACC inhibitory activity, the inhibition selectivity over VOCC, and the activity of suppressing IL-2 production. […] Therefore, a pharmaceutical product containing the compound is useful as an agent for preventing or treating allergic, inflammatory or autoimmune diseases in which CRACC and IL-2 participates. Herein, the allergic, inflammatory or autoimmune diseases include, for example, bronchial asthma, psoriasis, atopic diseases including atopic dermatitis, inflammatory bowel diseases including Crohn disease, digestive ulcer, nephritis, hepatitis, pancreatitis, collagenosis, rheumatoid arthritis, osteoarthritis, and rejection on transplantation. […]

[4] = test system: antigen-induced airway eosinophilia; experiment: Antigen-induced airway eosinophilia (rat); assay type: in vivo; settings: test described in patent reference 1
Text: as §1

[5] = test system: collagen-induced arthritis; experiment: Murine collagen-induced arthritis model; assay type: in vivo; settings: test described in patent reference 1
Text: as §1

[6] = Stability test of the crystals (assay value by HPLC, internal standard method); assay type: physicochemical; settings: for Stability test: assay value by HPLC (internal standard method, peak area): 40° C. under light-resistant; for Stability of the crystal: at 5 to 60° C. for at least three months
Protocol: Because both the α type and β type crystals are stable at 5 to 60° C. for at least three months and can be highly purified by recrystallization, these crystals may be used as raw materials for producing pharmaceutical products. Particularly, these crystals are preferable as raw materials for producing solid pharmaceutical preparations.
(The values express the assay values determined by an internal standard method on the basis of peak area obtained by HPLC)

| Stability test: assay value by HPLC (internal standard method, peak area) ([6]; After 1 month) | Stability test: assay value by HPLC (internal standard method, peak area) ([6]; After 3 months) | Stability of the crystal [6] | Compound | effect on the suppression of TNCB-induced Contact Hypersensitivity [1] | activity of suppressing IL-2 production (IL-2 production) | CRACC inhibitory activity [2] | inhibition selectivity over VOCC [3] | activity of suppressing of antigen-induced airway eosinophilia [4] | activity of suppressing the arthritis in murine collagen-induced arthritis model [5] |
| --- | --- | --- | --- | --- | --- | --- | --- | --- | --- |
| – | – | – | Cc1cc(C)c(C(=O)Nc2ccc(-n3nc(C(F)(F)F)cc3C(F)(F)F)cc2)cn1 [4,6-dimethyl-4′-[3,5-bis(trifluoromethyl)-1H-pyrazol-1-yl]nicotinanilide] | very good activities | excellent | excellent | excellent | very good activities | very good activities |
| 99.7% | 100.7% | stable | Cc1cc(C)c(C(=O)Nc2ccc(-n3nc(C(F)(F)F)cc3C(F)(F)F)cc2)cn1 [β type crystal, 4,6-dimethyl-4′-[3,5-bis(trifluoromethyl)-1H-pyrazol-1-yl]nicotinanilide] | – | – | – | – | – | – |
| 100.7% | 99.2% | stable | Cc1cc(C)c(C(=O)Nc2ccc(-n3nc(C(F)(F)F)cc3C(F)(F)F)cc2)cn1 [α type crystal, 4,6-dimethyl-4′-[3,5-bis(trifluoromethyl)-1H-pyrazol-1-yl]nicotinanilide] | – | – | – | – | – | – |
